Data set [1] has as its target T1, human CB2 receptor (Homo sapiens, UniProt P34972).
T1 construct: expressed in transfected cells
The data set is described as follows: Human CB2 receptor binding inhibition test ([3H]CP-55,940, CHO membrane fractions). To be noted: [3H]CP-55,940, membrane fractions of CHO cells stably expressing human CB2 receptor, 25° C., 2 hours; read-out: CB2 IC50 (Inhibition of binding to human CB2 receptor). The method in brief:
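Membranes from CHO-DHFR(−) cells stably expressing human CB2 used for [3H]CP-55,940 binding; filter-bound radioactivity counted by scintillation after washes with 0.1% BSA buffer. Nonspecific binding defined with 2.0 μM CP-55,940; IC50 for inhibition of specific binding.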

Data set [2] addresses T1, human CB2 receptor. The data set is described as follows: Test for GTPγS binding via human CB2 receptor. The class given is biochemical. Conditions: human CB2 receptor CHO membrane fractions; read-out: EC50 value (effective concentration exhibiting 50% activity), GTPγS binding. As for the experimental part: Test for GTPγS Binding Via Human CB2 Receptor
The CHO cells capable of stably expressing the human CB2 receptor were prepared in the same manner as in Experimental Example 1.

In data set [3] the test system is Jcl: ICR-series male mice. The experiment in a line: Writhing test with acetic acid in mouse. The class given is in vivo. Conditions: orally administered 30 mg/kg, acetic acid i.p. one hour after administration. As for the experimental part: Writhing Test with Acetic Acid in Mouse
This test was performed in accordance with the method of Futaki N et al. (Gen Pharmacol. 24(1):105-110 (1993). A test compound suspended in a 5% gum Arabic solution was orally administered to Jcl: ICR-series male mice (5 weeks old). One hour after the administration of the test compound, a 0.9% aqueous acetic acid solution was intraperitoneally administered. Five minutes after the administration, the number of abdomen stretch movements (pain-related behavior) were counted for 10 minutes. Only the 5% gum Arabic solution was orally administered to the control group. A pain-related behavior inhibition rate (%) was obtained based on the following equation.
(In general: In writhing tests, fewer writhes than in controls are read as antinociception.)

Another data set relates to Balb/c male mice. The experiment in a line: Test for edema on ear in mouse (PMA-induced). The class given is in vivo. To be noted: 1 mg per murine ear, PMA 0.8 μg, measured five hours later. As for the experimental part:
Test for Edema on Ear in Mouse
Using Balb/c male mice (5 weeks old), a test compound dissolved in acetone was applied in an amount of 20 μL to the inside the ear. Ten minutes after the application of the test compound, an acetone solution (20 μL) containing 0.8 μg of PMA (phorbol 12-myristate 13-acetate) was applied. Five hours later, the thickness (hyperplasia) of the ear was measured by a dial sickness gauge. Acetone alone was applied to the control group. The inhibition rate (%) of edema on the ear was calculated based on the following equation.

The next data set has as its system SD:IGS-series male rats. The data set is described as follows: Neuropathic pain test in rat (partial sciatic nerve clipping, von Frey filament). The class given is in vivo. To be noted: oral administration 3, 10 and 30 mg/kg, one hour after administration, FIG. 1. As for the experimental part:
Neuropathic Pain Test in Rat
Using SD:IGS-series male rats (5 weeks old), neuropathic pain model were prepared by partially clipping the sciatic nerve of the femoral region in accordance with the method of Seltzer et al. (SeltzerZ; Pain. 43(2):205-218 (1990)). When the plantar surface of the paw on the affected side was stimulated by touching with a von Frey filament(s) (nylon fiber for use in a touch test: North Coast Medical, Inc.), the pain threshold (load (g) applied to the filament when an animal responds to touch stimulation) was measured. The test compound was suspended in a 5% gum Arabic solution and administered in a dose of 0 mg/kg, 3 mg/kg, 10 mg/kg and 30 mg/kg. One hour after the administration, pain threshold (g) was measured.

For data set [4], the target named is T2, human CB1 receptor (Homo sapiens, UniProt P21554).
T2 construct: expressed in transfected cells
T2 sequence (P21554 whole entry): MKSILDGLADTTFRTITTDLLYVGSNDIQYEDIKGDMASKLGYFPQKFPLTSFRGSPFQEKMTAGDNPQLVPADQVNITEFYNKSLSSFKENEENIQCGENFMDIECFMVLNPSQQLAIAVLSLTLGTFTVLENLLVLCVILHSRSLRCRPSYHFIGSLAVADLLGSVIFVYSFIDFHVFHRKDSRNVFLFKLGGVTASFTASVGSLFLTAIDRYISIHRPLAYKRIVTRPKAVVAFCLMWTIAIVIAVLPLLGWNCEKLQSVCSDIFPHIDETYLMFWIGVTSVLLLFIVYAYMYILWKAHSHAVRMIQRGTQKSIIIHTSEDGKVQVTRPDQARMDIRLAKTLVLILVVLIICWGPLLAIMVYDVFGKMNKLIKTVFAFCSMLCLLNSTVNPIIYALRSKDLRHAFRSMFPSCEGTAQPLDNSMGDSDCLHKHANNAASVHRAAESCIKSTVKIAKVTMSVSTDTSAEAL
The experiment in a line: Human CB1 receptor binding inhibition test. To be noted: CHO-DHFR(−) cells stably expressing human CB1 receptor, same manner as Experimental Example 1. As for the experimental part:
Human CB1 Receptor Binding Inhibition Test
The CHO-DHFR(−) cells capable of stably expressing a CB1 receptor were prepared in the same manner as in Experimental Example 1. The binding test to the human CB1 receptor was performed to obtain 50% inhibitory concentration (IC50 value) of a test compound.

The target of data set [5] is T2, human CB1 receptor. The experiment in a line: Test for GTPγS binding via human CB1 receptor. The class given is biochemical. Conditions: human CB1 receptor CHO membrane fractions; maximum activity of each compound regarded as 100%; read-out: EC50 value (effective concentration exhibiting 50% activity), [35S]GTPγS binding. As for the experimental part:
Test for GTPγS Binding Via Human CB1 Receptor
CHO cells capable of stably expressing the human CB1 receptor were prepared in the same manner as in Experimental Example 2. The membrane fractions thereof were incubated together with a test compound in an assay buffer [50 mM Tris-HCl (pH 7.4), 2.5 mM EDTA, 5 mM MgCl2, 3 μM GDP (manufactured by SIGMA), 30 μg/ml Saponin (manufactured by SIGMA)] containing 0.2% bovine serum albumin at 30° C. for 30 minutes. Thereafter, 0.1 nM [^35S]GTPγS (manufactured by Perkin Elmer) was added to the buffer, incubation was performed at 30° C. for 30 minutes. The resultant solution was filtrated by a glass filter GF/C and washed. Thereafter, radioactivity on the glass filter was measured by a liquid scintillation counter. The nonspecific binding was measured […].
For orientation: GTPγS resists hydrolysis and so accumulates on activated G proteins.

The source of these data is patent US20080312435A1, “Imine Compound” (TAISHO PHARMACEUTICAL CO., LTD., priority 2004, published 2008).

T1 sequence (P34972 whole entry): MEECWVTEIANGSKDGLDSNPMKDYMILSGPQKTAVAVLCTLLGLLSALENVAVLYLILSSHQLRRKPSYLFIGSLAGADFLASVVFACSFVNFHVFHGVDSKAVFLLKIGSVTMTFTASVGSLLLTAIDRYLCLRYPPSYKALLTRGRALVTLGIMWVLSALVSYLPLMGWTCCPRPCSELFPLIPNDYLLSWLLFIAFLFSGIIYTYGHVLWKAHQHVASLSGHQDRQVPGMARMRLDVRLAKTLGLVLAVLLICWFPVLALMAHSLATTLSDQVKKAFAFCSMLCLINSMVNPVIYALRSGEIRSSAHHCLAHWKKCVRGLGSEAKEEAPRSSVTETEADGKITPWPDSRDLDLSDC

By IC50 is commonly meant the point on the concentration scale where inhibition reaches its midpoint. In general, melting point refers to the temperature, or range, at which the solid turns liquid. Take `O=C(/N=c1\ccccn1CC1CC1)c1cccc(C(F)(F)F)c1F` [compound 9]: the melting point was 58.5 to 59 °C. Further, the IC50 at human CB2 receptor [1] amounted to 11.3 nM. Also, the EC50 at human CB2 receptor [2] is 23.7 nM.
Turning to `COc1ccc(C(F)(F)F)cc1C(=O)/N=c1\cc(C(C)(C)C)sn1CC1CC1` [compound 59], the melting point lay within 95 to 97 °C. In addition, the “pain-related behavior inhibition rate” value in data set [3] came out at 44.8%. Moreover, the concentration for half-maximal inhibition (IC50) on human CB2 receptor [1] amounted to 7.2 nM.
In the case of `Cc1c(C(C)(C)C)s/c(=N\C(=O)c2cccc(C(F)(F)F)c2)n1CC1CC1` [compound 184], in the data set with Balb/c male mice, the “inhibition rate of edema on the ear” value is 65%. The pain threshold entry in the data set with SD:IGS-series male rats is reported as “increased pain threshold in a dose depending manner”. Also, the 50% inhibitory concentration (IC50) at human CB2 receptor [1] turned out to be 12 nM. Besides, the EC50 on human CB2 receptor [2] amounted to 9.8 nM.
Molecule `Cc1cccc(C(=O)/N=c2\sc(C(C)(C)C)c(C)n2CC2CC2)c1Br` [compound 247] displayed a melting point of 142 to 144 °C. The “pain-related behavior inhibition rate” value in data set [3] is reported as 93.0%. Further, on human CB1 receptor [4], the IC50 turned out to be 3 nM. In addition, on human CB2 receptor [1], the IC50 came to 0.3 nM. Besides, on human CB1 receptor [5], the EC50 turned out to be 33 nM.
`Cc1cccc(C(=O)/N=c2\sc(C(C)(C)C)c(C)n2CC2CC2)c1I` [compound 249] registered a melting point of 149 to 151 °C. On human CB1 receptor [4], this molecule registered a half-maximal inhibitory concentration (IC50) of 2 nM. Further, the concentration for half-maximal inhibition (IC50) on human CB2 receptor [1] amounted to 0.4 nM. For the same molecule, at human CB1 receptor [5], the EC50 came out at 19 nM.
As to `COc1ccc(C(F)(F)F)cc1C(=O)/N=c1\sc(C(C)(C)C)c(C)n1CC1CC1` [compound 267], the melting point lay within 175 to 177 °C. In addition, the “inhibition rate of edema on the ear” value with Balb/c male mice came out at 84%. Moreover, in data set [3], the “pain-related behavior inhibition rate” value is 59.9%. For the same molecule, at human CB2 receptor [1], the IC50 came out at 1.1 nM. Moreover, the EC50 at human CB2 receptor [2] is 0.4 nM.
In the case of `Cc1c(C(C)(C)C)s/c(=N\S(=O)(=O)c2ccccc2C(F)(F)F)n1CC1CC1` [compound 411], the “pain-related behavior inhibition rate” value in data set [3] was 49.0%. Besides, on human CB2 receptor [1], the IC50 was 8.7 nM.
On to `Cn1c(C(C)(C)C)c/c(=N\C(=O)c2cccc(C(F)(F)F)c2F)n1CC1CC1` [compound 474, N-(5-t-butyl-2-cyclopropylmethyl-1,2-dihydro-1-methylpyrazol-3-ylidene)-2-fluoro-3-(trifluoromethyl)benzamide], for which the “inhibition rate of edema on the ear” value with Balb/c male mice is reported as 37%. In data set [3], the “pain-related behavior inhibition rate” value is on record as 61.9%. Further, the IC50 at human CB2 receptor [1] is 4.9 nM. Besides, the EC50 at human CB2 receptor [2] was determined as 2.3 nM.
As to `CCOCCn1/c(=N/C(=O)c2cccc(Cl)c2C)cc(C(C)(C)C)n1C` [compound 490], the melting point was in the range of 127 to 128 °C. Moreover, the concentration for half-maximal inhibition (IC50) on human CB1 receptor [4] was 291 nM. Moreover, the 50% inhibitory concentration (IC50) at human CB2 receptor [1] amounted to 10 nM.
As to `CCOCCn1/c(=N/C(=O)c2cccc(Br)c2C)cc(C(C)(C)C)n1C` [compound 491], the melting point was 125 to 126 °C. In addition, the 50% inhibitory concentration (IC50) on human CB1 receptor [4] came to 172 nM. Besides, on human CB2 receptor [1], the half-inhibitory concentration (IC50) turned out to be 9.3 nM.
Consider `CC(C)(C)c1nn(CC2CC2)/c(=N/C(=O)c2nccc3ccccc23)s1` [compound 510], for which the melting point was 89 to 90 °C. In data set [3], the “pain-related behavior inhibition rate” value is reported as 19.6%. The half-inhibitory concentration (IC50) at human CB2 receptor [1] is 13.2 nM.
